One test has as its system B16-F10 cells. In words: Cell proliferation assay in B16-F10 cells with IFN-gamma (CellTiter-Glo). Format: cell-based. Conditions: 120 h, mouse IFN-gamma 10 ng/mL, read-out: PTPN2 Prolif 5d B16F10 EC50. The procedure:
B16-F10 cells (ATCC, Manassas, VA, #CRL-6475) were cultured in DMEM growth medium (ThermoFisher Scientific, Waltham, MA, #11995-040) supplemented with 10% heat inactivated FBS (ThermoFisher Scientific, #16140-071) and 1% pen/strep (ThermoFisher Scientific, #15140-122). The cells were seeded into two white opaque 384-well tissue culture treated microplates (PerkinElmer, Waltham, MA, #6007688) at a density of 100 cells/well in 20 uL total volume and incubated overnight at 37 C and 5% CO2. 30 nL of compounds dissolved in DMSO were then transferred from a source plate into target wells with the Echo650 acoustic liquid handler (Beckman Coulter, Indianapolis, IN). Negative control wells received 30 nL of DMSO only (0.15% final concentration). Plates were returned to the incubator for 1 hour and then cells treated with either 5 uL of growth medium or 5 uL of growth medium containing 50 ng/ml of recombinant mouse IFN-gamma protein (R&D Systems, Minneapolis, MN, #485-MI/CF, 10 ng/mL final concentration) using the Assist automated pipetting platform (INTEGRA Biosciences, Hudson, NH). Plates were incubated at 37C for 4 days and cell proliferation assayed with the CellTiter-Glo reagent (Promega, Madison, WI, #G7573, 25 uL per well). […] Off-target compound mediated cytotoxicity was identified by checking for growth inhibition in the absence of IFNg.

For test [1], the system named is phosphorylated STAT1 in B16-F10 cells. In words: Phospho-STAT1 (Tyr701) HTRF assay in B16-F10 cells with IFN-gamma. It is filed as cell-based. As to conditions: mouse IFN-gamma 100 ng/mL, 1 hour, read-out: pSTAT1 HTRF B16 EC50. On the procedure:
B16-F10 cells (ATCC, Manassas, VA, #CRL-6475) were cultured in DMEM growth medium (ThermoFisher Scientific, Waltham, MA, #11995-040) supplemented with 10% heat inactivated FBS (ThermoFisher Scientific, #16140-071) and 1% pen/strep (ThermoFisher Scientific, #15140-122). The cells were seeded into a white opaque 384-well tissue culture treated microplate (PerkinElmer, Waltham, MA, #6007688) at a density of 10,000 cells/well in 20 uL total volume and incubated overnight at 37 C and 5% CO2. 30 nL of compounds dissolved in DMSO were then transferred from a source plate into target wells with the Echo650 acoustic liquid handler (Beckman Coulter, Indianapolis, IN). Negative control wells received 30 nL of DMSO only (0.15% final concentration). Plates were returned to the incubator for 1 hour and then cells treated with either 5 uL of growth medium or 5 uL of growth medium containing 500 ng/ml of recombinant mouse IFN-gamma protein (R&D Systems, Minneapolis, MN, #485-MI/CF, 100 ng/mL final concentration) using the Assist automated pipetting platform (INTEGRA Biosciences, Hudson, NH). Plates were incubated at 37 C for 1 hour and assayed for phosphorylated STAT1 protein levels with the phospho-STAT1 (Tyr701) HTRF kit (Cisbio, Bedford, MA, #63ADK026PEH) according to manufacturer's instructions. HTRF signal intensity was collected with the EnVision 2105 plate reader (PerkinElmer) 24 hours later and analyzed with the Dotmatics software platform to calculate compound IC50 values.

Test [2] has as its target T1, human PTPN2 (Homo sapiens, UniProt P17706).
T1 sequence (P17706 1-415): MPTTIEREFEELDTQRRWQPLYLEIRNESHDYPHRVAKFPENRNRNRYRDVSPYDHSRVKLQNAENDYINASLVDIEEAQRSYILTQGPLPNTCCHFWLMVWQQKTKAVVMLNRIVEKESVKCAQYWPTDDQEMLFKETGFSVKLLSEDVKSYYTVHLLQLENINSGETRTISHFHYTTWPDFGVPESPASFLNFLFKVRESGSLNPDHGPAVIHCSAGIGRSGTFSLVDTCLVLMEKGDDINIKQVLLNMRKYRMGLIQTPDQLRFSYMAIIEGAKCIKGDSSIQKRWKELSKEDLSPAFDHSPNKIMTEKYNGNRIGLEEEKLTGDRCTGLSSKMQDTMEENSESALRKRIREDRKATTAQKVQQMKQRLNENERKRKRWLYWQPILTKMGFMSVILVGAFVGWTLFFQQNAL
In words: PTPN2 BCHEM (PhosphoSens assay, substrate AQT0264). It is filed as biochemical. As to conditions: PhosphoSens substrate AQT0264 20 μM, PTPN2 150 pM, room temperature. On the procedure:
A PhosphoSens® kinase assay was performed as described by the vendor (AssayQuant Technologies, Marlborough, MA). Briefly, 1000× solutions of compounds were prepared in DMSO via serial dilution of the 10 mM DMSO stocks using 3-fold intervals in a 384-well reagent plate. 50 nL of the compound dilution series was then added to the corresponding wells of a 384-well assay plate. 40 mL of 1.25× substrate (AQT0264) in 1× assay buffer (50 mM HEPES pH 7.5, 500 μM EGTA, […] MgCl2, 0.01% Brij-35, 1% Glycerol, 1 mM DTT, and 0.2 mg/mL BSA) was transferred to each well of the assay plate to achieve a final substrate concentration of 20 μM. Finally, […] of 5× PTPN2 enzyme stock was added to each well of the assay plate for a final enzyme concentration of 150 pM. Reaction progress curves were collected by sampling fluorescence intensity at the excitation wavelength 360 nm (λex360) and emission wavelength 480 nm (λem480) every 71 seconds for one hour using a Synergy H4 plate reader (BioTek Instruments/Agilent Technologies, Winooski, VT) at room temperature.
(§1) For IC50 data, High DDT concentration and/or DiFMUP substrate assays were used; a skilled artisan may use either assay.

Test [3] deals with T1, human PTPN2. Kind of test: Phosphatase activity assay using DiFMUP as substrate (PTPN2 BCHEM DIFMUP). Format: biochemical. Also noted: purchased MilliporeSigma SRP5075. Conditions: human PTPN2 0.15 nM, 10 mM DTT, room temperature. On the procedure: The PTPN2 biochemical assay was performed as follows, a 5× stock solution of human PTPN2 (SRP5075, MilliporeSigma, Burlington, MA) and a 1.25× stock solution of DiFMUP (D6567, ThermoFisher Scientific, Waltham, MA), were prepared in 1× reaction buffer consisting of 50 mM HEPES, pH 7.4, 1 mM EDTA, 150 mM NaCl, 0.2 mg/mL BSA, 100 U/mL catalase and 10 mM DTT. […] of the DiFMUP substrate solution, for a final concentration of […] DiFMUP substrate, was added to a Corning 3574 384-well, white, non-binding surface microtiter plate containing […] of serially diluted test compounds prepared in DMSO. The reactions were started with the addition of […] of the enzyme solution, for a final PTPN2 concentration of 0.15 nM, and monitored every 105 seconds for 60 minutes at λEX 360/λEM 460 in a BioTek Synergy HTX plate reader (Agilent Technologies, Santa Clara, CA) at room temperature. The initial linear portions of the progress curves were fit according to a linear equation to yield the slopes and converted to % inhibition based on a value of 100% activity for the no inhibitor treated control. IC50 values of each compound were obtained by fitting the % inhibition-compound concentration curves using Dotmatics software (Dotmatics, Bishops Stortford, Hertfordshire, England).
as §1

Take `Cc1ccc(-c2csc(N(C)Cc3cc(O)c(N4CC(=O)NS4(=O)=O)c(F)c3)n2)c(C)c1` [EXAMPLE 1, 5-(4-(((4-(2,4-dimethylphenyl)thiazol-2-yl)(methyl)amino)methyl)-2-fluoro-6-hydroxyphenyl)-1,2,5-thiadiazolidin-3-one 1,1-dioxide]: the concentration for a half-maximal effect (EC50) (in the test on B16-F10 cells; in test [1]) was above 15000 nM each time. Besides, the 50% inhibitory concentration (IC50) is 940 nM on human PTPN2 [2] and 720 nM at human PTPN2 [3].

Regarding `O=C1CN(c2c(O)cc(CNc3cc[nH]n3)cc2F)S(=O)(=O)N1` [EXAMPLE 2, 5-(4-(((1H-pyrazol-3-yl)amino)methyl)-2-fluoro-6-hydroxyphenyl)-1,2,5-thiadiazolidin-3-one 1,1-dioxide], the EC50 (with B16-F10 cells; in test [1]) was above 15000 nM throughout. In addition, on human PTPN2 [3], the IC50 was 20 nM.

In the case of `O=C1CN(c2c(O)cc(CNc3ccon3)cc2F)S(=O)(=O)N1` [EXAMPLE 3, 5-(2-fluoro-6-hydroxy-4-((isoxazol-3-ylamino)methyl)phenyl)-1,2,5-thiadiazolidin-3-one 1,1-dioxide], the concentration for a half-maximal effect (EC50) in the test on B16-F10 cells was determined as 1120 nM; in test [1] it was 30 nM. Besides, the IC50 at human PTPN2 [3] turned out to be 20 nM.

On to `O=C1CN(c2c(O)cc(CNc3nc[nH]n3)cc2F)S(=O)(=O)N1` [EXAMPLE 5, 5-(4-(((1H-1,2,4-triazol-3-yl)amino)methyl)-2-fluoro-6-hydroxyphenyl)-1,2,5-thiadiazolidin-3-one 1,1-dioxide], for which the EC50 with B16-F10 cells is 1690 nM; in test [1] it was 930 nM. Moreover, the IC50 at human PTPN2 [3] was 40 nM.

In the case of `Cn1ccc(NCc2cc(O)c(N3CC(=O)NS3(=O)=O)c(F)c2)n1` [EXAMPLE 6, 5-(2-fluoro-6-hydroxy-4-(((1-methyl-1H-pyrazol-3-yl)amino)methyl)phenyl)-1,2,5-thiadiazolidin-3-one 1,1-dioxide], the concentration giving a half-maximal response (EC50) in the test on B16-F10 cells amounted to 820 nM; in test [1], 6850 nM. The IC50 at human PTPN2 [3] stood at 10 nM.

In the case of `O=C1CN(c2c(O)cc(CNc3nncs3)cc2F)S(=O)(=O)N1` [EXAMPLE 7, 5-(4-(((1,3,4-thiadiazol-2-yl)amino)methyl)-2-fluoro-6-hydroxyphenyl)-1,2,5-thiadiazolidin-3-one 1,1-dioxide], the EC50 came out at 460 nM with B16-F10 cells and 150 nM in test [1]. In addition, the half-maximal inhibitory concentration (IC50) at human PTPN2 [3] came out at 10 nM.

`Cc1cnc(NCc2cc(O)c(N3CC(=O)NS3(=O)=O)c(F)c2)[nH]1` [EXAMPLE 8, 5-(2-fluoro-6-hydroxy-4-(((5-methyl-1H-imidazol-2-yl)amino)methyl)phenyl)-1,2,5-thiadiazolidin-3-one 1,1-dioxide]: the EC50 in the test on B16-F10 cells stood at 5900 nM; in test [1] it was 4650 nM. Besides, on human PTPN2 [3], the IC50 amounted to 160 nM.

In the case of `O=C1CN(c2c(O)cc(CNc3nccs3)cc2F)S(=O)(=O)N1` [EXAMPLE 9, 5-(2-fluoro-6-hydroxy-4-((thiazol-2-ylamino)methyl)phenyl)-1,2,5-thiadiazolidin-3-one 1,1-dioxide], the EC50 came to 2300 nM in the test with B16-F10 cells and 1430 nM in test [1]. For the same compound, the IC50 on human PTPN2 [3] came out at 3 nM.

As for `O=C1CN(c2c(O)cc(CNc3ncc[nH]3)cc2F)S(=O)(=O)N1` [EXAMPLE 10, 5-(4-(((1H-imidazol-2-yl)amino)methyl)-2-fluoro-6-hydroxyphenyl)-1,2,5-thiadiazolidin-3-one 1,1-dioxide], the EC50 turned out to be 180 nM with B16-F10 cells and 90 nM in test [1]. Moreover, the IC50 at human PTPN2 [3] was 6 nM.

With `Cn1ccnc1NCc1cc(O)c(N2CC(=O)NS2(=O)=O)c(F)c1` [EXAMPLE 11, 5-(2-fluoro-6-hydroxy-4-(((1-methyl-1H-imidazol-2-yl)amino)methyl)phenyl)-1,2,5-thiadiazolidin-3-one 1,1-dioxide], the EC50 was 160 nM in the test with B16-F10 cells and 210 nM in test [1]. In addition, the IC50 on human PTPN2 [3] came to 10 nM.

With `Cc1nnc(NCc2cc(O)c(N3CC(=O)NS3(=O)=O)c(F)c2)s1` [EXAMPLE 12, 5-(2-fluoro-6-hydroxy-4-(((5-methyl-1,3,4-thiadiazol-2-yl)amino)methyl)phenyl)-1,2,5-thiadiazolidin-3-one 1,1-dioxide], the EC50 was 560 nM with B16-F10 cells and 230 nM in test [1]. Besides, the IC50 at human PTPN2 [3] came out at 10 nM.

As to `Cc1csc(NCc2cc(O)c(N3CC(=O)NS3(=O)=O)c(F)c2)n1` [EXAMPLE 13, 5-(2-fluoro-6-hydroxy-4-(((4-methylthiazol-2-yl)amino)methyl)phenyl)-1,2,5-thiadiazolidin-3-one 1,1-dioxide], the EC50 in the test with B16-F10 cells amounted to 1870 nM; in test [1], 230 nM. Also, the IC50 at human PTPN2 [3] came to 10 nM.

Take `Cc1cc(NCc2cc(O)c(N3CC(=O)NS3(=O)=O)c(F)c2)sn1` [EXAMPLE 14, 5-(2-fluoro-6-hydroxy-4-(((3-methylisothiazol-5-yl)amino)methyl)phenyl)-1,2,5-thiadiazolidin-3-one 1,1-dioxide]: the EC50 in the test with B16-F10 cells was determined as 2570 nM; in test [1] it was 690 nM. For the same compound, the IC50 on human PTPN2 [3] was found to be 20 nM.

For the compound `Cc1cc(NCc2cc(O)c(N3CC(=O)NS3(=O)=O)c(F)c2)[nH]n1` [EXAMPLE 15, 5-(2-fluoro-6-hydroxy-4-(((3-methyl-1H-pyrazol-5-yl)amino)methyl)phenyl)-1,2,5-thiadiazolidin-3-one 1,1-dioxide], the EC50 was found to be 380 nM with B16-F10 cells and 630 nM in test [1]. The IC50 at human PTPN2 [3] came out at 4 nM.

The record behind these values is patent US20240238258A1, “INHIBITORS OF PROTEIN TYROSINE PHOSPHATASE, COMPOSITIONS, AND METHODS OF USE” (BRISTOL-MYERS SQUIBB COMPANY, priority 2022, published 2024).
